According to publication PMC12136037, “Type II kinase inhibitors that target Parkinson’s disease–associated LRRK2” (Science Advances, 2025):

What was measured:
Experiment in all cases: DSF 100 kinase selectivity screen;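 note: compound tested at 20 µM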
Format in all cases: binding
[1] = target: T1, ~100 representative kinases (Homo sapiens, UniProt Q96L34); settings: protein MARK4; average of three replicates
T1 construct: Recombinant protein kinase domains with a concentration of 2 μM
T1 sequence (Q96L34 1-752): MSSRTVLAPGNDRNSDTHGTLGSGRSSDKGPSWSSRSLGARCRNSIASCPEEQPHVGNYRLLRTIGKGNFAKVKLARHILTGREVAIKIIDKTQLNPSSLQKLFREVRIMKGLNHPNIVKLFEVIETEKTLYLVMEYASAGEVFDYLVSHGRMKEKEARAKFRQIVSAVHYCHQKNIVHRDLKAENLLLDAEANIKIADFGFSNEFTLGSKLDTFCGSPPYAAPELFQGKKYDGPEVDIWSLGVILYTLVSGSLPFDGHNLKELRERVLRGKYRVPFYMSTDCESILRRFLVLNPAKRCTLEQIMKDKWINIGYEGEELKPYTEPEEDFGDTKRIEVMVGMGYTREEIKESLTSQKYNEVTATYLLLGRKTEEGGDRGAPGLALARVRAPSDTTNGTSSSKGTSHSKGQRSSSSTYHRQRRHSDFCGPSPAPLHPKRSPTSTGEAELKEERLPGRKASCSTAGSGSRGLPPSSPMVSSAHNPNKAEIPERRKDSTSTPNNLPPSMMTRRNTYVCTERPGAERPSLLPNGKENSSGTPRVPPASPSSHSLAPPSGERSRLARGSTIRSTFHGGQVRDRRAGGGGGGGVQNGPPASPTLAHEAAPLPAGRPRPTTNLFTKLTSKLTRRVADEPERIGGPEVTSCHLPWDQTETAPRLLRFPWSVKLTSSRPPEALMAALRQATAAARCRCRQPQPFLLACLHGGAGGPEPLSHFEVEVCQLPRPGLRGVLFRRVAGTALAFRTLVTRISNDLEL
How it was run: (§1)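 Each kinase domain, at 2 μM, is mixed with 20 μM test compound and SYPRO Orange in Hepes (20 mM, pH 7.5) with 500 mM NaCl. Temperature is then raised at 3°C/min and fluorescence-monitored unfolding yields the melting temperature change, ΔTm in degrees Celsius.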

[2] = target: T2, ~100 representative kinases (Homo sapiens, UniProt P45983); settings: protein MAPK8; average of three replicates
T2 construct: Recombinant protein kinase domains with a concentration of 2 μM
How it was run: as §1

[3] = target: T3, ~100 representative kinases (Homo sapiens, UniProt Q9UPE1); settings: Protein SRPK3; DSF; average of three replicates
T3 construct: Recombinant protein kinase domains with a concentration of 2 μM
How it was run: as §1

[4] = target: T4, ~100 representative kinases (Homo sapiens, UniProt Q8IU85); settings: Protein CAMK1D; average of three replicates
T4 construct: Recombinant protein kinase domains with a concentration of 2 μM
How it was run: as §1

[5] = target: T5, ~100 representative kinases (Homo sapiens, UniProt P12931); settings: Protein SRC; DSF; average of three replicates
T5 construct: Recombinant protein kinase domains with a concentration of 2 μM
How it was run: as §1

[6] = target: T6, ~100 representative kinases (Homo sapiens, UniProt Q13627); settings: Protein DYRK1A; average of three replicates
T6 construct: Recombinant protein kinase domains with a concentration of 2 μM
How it was run: as §1

[7] = target: T7, ~100 representative kinases (Homo sapiens, UniProt P11309); settings: protein PIM1; average of three replicates
T7 construct: Recombinant protein kinase domains with a concentration of 2 μM
How it was run: as §1

[8] = target: T8, ~100 representative kinases (Homo sapiens, UniProt Q9UKI8); settings: Protein TLK1; DSF; average of three replicates
T8 construct: Recombinant protein kinase domains with a concentration of 2 μM
T8 sequence (Q9UKI8 1-766): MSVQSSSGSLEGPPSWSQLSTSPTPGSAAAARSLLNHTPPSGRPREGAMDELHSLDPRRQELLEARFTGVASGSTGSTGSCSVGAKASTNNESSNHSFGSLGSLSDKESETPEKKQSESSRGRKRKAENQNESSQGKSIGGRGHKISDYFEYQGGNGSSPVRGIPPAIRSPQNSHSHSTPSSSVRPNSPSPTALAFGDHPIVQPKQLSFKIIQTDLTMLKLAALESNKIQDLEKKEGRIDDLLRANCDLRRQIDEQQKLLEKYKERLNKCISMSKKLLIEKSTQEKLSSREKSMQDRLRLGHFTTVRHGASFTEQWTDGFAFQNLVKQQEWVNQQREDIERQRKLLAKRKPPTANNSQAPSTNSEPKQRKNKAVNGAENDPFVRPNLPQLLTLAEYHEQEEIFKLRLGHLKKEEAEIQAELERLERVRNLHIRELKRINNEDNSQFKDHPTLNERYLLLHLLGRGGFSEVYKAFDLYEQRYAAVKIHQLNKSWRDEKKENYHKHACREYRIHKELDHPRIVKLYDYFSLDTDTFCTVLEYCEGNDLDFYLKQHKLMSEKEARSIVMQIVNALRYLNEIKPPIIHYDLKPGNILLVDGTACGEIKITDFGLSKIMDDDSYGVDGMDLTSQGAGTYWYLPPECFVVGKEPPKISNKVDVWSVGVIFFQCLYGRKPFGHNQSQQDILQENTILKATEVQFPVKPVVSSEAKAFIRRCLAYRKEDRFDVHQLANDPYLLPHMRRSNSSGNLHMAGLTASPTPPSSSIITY
How it was run: as §1

[9] = target: T9, ~100 representative kinases (Homo sapiens, UniProt P21802); settings: protein FGFR2; average of three replicates
T9 construct: Recombinant protein kinase domains with a concentration of 2 μM
How it was run: as §1

[10] = target: T10, ~100 representative kinases (Homo sapiens, UniProt Q13188); settings: Protein STK3; DSF; average of three replicates
T10 construct: Recombinant protein kinase domains with a concentration of 2 μM
T10 sequence (Q13188 1-491): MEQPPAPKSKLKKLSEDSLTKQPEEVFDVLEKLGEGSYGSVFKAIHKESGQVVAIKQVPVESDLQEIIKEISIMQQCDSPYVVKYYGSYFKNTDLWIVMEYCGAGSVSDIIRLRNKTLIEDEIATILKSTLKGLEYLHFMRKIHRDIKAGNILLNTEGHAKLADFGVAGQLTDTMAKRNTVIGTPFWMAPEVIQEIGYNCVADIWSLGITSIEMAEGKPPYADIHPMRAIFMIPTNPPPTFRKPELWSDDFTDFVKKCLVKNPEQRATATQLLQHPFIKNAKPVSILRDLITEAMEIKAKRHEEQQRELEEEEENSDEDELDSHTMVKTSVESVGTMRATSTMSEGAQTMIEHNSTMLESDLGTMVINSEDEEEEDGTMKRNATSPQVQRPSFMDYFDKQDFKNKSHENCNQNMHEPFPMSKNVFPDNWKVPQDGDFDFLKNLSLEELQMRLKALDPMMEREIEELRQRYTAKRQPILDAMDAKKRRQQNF
How it was run: as §1

[11] = target: T11, ~100 representative kinases (Homo sapiens, UniProt P29317); settings: Protein EPHA2; average of three replicates
T11 construct: Recombinant protein kinase domains with a concentration of 2 μM
How it was run: as §1

T4 sequence (Q8IU85 whole entry, the tested form may be a part): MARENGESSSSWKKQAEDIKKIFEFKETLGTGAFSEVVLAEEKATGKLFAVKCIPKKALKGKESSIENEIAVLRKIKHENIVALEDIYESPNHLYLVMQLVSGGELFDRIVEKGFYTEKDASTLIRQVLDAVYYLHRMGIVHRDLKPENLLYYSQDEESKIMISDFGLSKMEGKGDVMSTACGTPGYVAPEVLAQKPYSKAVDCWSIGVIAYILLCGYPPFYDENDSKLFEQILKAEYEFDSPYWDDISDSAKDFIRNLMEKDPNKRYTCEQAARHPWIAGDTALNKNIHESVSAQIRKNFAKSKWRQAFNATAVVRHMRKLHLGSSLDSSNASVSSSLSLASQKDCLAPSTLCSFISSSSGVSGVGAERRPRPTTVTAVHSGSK
T7 sequence (P11309 whole entry, the tested form may be a part): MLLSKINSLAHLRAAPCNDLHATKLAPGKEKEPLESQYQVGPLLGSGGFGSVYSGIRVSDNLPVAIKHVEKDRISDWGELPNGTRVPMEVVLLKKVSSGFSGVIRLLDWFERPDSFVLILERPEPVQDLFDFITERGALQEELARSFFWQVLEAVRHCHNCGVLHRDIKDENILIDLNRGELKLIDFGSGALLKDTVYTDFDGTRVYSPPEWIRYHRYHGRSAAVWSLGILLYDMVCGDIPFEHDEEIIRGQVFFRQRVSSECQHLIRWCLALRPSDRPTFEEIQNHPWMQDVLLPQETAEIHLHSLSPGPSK
T3 sequence (Q9UPE1 whole entry, the tested form may be a part): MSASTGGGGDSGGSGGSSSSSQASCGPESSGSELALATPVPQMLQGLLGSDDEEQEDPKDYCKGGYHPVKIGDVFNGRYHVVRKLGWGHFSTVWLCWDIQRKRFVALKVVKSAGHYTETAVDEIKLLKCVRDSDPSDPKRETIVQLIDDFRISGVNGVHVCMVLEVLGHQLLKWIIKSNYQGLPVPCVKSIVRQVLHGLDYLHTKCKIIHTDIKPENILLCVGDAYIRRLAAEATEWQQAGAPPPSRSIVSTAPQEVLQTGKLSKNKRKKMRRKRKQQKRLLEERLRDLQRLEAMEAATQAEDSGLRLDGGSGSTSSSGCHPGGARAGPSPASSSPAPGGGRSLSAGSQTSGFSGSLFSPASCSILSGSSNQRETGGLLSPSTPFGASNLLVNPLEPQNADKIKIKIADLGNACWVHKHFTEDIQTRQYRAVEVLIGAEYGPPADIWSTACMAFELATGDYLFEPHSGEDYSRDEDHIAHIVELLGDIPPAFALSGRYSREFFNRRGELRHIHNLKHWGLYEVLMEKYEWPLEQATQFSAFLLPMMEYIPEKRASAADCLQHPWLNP
T9 sequence (P21802 22-821): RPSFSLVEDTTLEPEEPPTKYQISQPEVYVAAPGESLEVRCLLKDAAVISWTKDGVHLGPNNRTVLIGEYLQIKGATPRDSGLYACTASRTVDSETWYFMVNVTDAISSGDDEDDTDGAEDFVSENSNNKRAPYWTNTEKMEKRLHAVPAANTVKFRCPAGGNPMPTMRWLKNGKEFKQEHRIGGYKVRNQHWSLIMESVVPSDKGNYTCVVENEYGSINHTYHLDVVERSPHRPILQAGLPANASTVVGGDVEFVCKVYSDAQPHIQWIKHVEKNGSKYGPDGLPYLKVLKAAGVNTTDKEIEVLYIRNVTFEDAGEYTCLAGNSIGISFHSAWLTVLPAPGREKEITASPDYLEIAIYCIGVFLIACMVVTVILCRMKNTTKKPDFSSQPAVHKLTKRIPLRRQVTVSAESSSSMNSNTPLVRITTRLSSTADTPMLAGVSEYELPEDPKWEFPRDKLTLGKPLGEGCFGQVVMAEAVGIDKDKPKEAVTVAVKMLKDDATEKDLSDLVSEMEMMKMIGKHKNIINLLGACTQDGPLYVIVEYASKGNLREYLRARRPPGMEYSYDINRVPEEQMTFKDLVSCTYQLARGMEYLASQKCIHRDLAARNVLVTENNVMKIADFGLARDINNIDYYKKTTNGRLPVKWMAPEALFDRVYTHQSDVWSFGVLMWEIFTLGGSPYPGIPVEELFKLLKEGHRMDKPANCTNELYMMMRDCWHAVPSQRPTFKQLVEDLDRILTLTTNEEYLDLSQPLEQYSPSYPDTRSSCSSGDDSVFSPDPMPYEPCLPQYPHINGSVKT
T5 sequence (P12931 whole entry, the tested form may be a part): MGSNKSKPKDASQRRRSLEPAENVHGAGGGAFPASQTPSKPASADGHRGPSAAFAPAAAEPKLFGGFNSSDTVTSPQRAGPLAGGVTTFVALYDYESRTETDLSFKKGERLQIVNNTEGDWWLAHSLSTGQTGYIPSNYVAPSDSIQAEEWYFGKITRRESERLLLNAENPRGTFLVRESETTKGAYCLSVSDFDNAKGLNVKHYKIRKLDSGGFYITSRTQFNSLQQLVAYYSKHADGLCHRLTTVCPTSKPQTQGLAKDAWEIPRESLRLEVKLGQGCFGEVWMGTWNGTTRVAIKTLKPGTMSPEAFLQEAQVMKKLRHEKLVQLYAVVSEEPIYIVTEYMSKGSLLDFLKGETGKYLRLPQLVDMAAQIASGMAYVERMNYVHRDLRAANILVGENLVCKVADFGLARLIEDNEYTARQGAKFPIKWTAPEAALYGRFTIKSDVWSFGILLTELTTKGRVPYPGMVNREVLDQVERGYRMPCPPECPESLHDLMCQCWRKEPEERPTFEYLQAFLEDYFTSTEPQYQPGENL
T11 sequence (P29317 24-976): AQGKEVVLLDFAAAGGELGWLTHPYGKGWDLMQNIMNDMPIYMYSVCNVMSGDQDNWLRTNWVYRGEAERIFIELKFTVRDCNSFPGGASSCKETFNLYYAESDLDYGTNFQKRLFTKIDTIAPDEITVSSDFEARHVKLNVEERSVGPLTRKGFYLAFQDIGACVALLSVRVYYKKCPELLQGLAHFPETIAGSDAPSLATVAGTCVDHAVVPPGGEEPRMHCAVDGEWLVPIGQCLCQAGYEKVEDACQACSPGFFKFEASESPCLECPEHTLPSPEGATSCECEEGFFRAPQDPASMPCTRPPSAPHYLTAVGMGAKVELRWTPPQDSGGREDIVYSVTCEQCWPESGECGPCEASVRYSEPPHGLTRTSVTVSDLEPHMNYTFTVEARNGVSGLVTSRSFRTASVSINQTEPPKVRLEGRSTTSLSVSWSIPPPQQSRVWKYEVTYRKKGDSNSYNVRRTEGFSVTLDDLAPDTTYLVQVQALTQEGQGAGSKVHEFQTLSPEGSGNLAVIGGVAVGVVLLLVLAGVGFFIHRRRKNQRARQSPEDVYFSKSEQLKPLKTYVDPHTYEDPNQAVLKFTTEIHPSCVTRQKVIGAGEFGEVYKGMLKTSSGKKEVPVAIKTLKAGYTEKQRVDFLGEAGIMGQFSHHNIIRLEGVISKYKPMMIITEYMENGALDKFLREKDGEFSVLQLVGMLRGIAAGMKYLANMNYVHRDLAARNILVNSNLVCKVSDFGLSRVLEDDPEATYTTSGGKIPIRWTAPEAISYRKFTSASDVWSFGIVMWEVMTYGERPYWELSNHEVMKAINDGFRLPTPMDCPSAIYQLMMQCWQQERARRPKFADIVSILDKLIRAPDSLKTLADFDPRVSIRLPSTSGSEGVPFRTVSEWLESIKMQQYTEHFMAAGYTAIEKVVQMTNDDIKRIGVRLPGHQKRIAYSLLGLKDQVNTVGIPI
T2 sequence (P45983 whole entry, the tested form may be a part): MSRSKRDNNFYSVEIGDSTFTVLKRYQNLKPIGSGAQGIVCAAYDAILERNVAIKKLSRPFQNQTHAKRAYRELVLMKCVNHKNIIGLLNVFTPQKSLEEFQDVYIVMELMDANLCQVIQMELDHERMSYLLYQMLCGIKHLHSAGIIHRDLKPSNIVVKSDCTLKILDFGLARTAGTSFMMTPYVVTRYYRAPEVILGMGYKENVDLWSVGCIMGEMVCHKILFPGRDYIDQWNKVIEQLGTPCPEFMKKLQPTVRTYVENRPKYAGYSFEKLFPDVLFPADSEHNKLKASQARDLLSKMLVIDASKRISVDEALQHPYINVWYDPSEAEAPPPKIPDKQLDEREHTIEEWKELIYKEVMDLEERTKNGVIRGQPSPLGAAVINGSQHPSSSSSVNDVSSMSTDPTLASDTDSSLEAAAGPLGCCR

SMILES	dTm [1]	dTm [2]	dTm [3]	dTm [4]	dTm [5]	dTm [6]	dTm [7]	dTm [8]	dTm [9]	dTm [10]	dTm [11]
Cc1cc(F)ccc1NC(=O)C1(C(=O)Nc2cccc(-c3c[nH]c4ncnc(N5CCOCC5)c34)c2)CC1 [Compound 24]	2.55 K	2.35 K	1.90 K	-2.03 K	0.70 K	0.41 K	0.58 K	-0.75 K	2.08 K	6.63 K	3.46 K
CCSc1nc(NC)c2c(-c3cccc(NC(=O)Nc4cc(C(C)(C)C)nn4-c4ccc(C)cc4)c3)c[nH]c2n1 [Compound 32]	0.25 K	4.04 K	1.35 K	0.45 K	0.61 K	0.57 K	1.50 K	-0.57 K	-0.15 K	0.53 K	0.36 K
O=C(Nc1ccc(F)cc1)C1(C(=O)Nc2cccc(-c3c[nH]c4ncnc(N5CCOCC5)c34)c2)CC1 [Compound 2]	3.91 K	1.17 K	6.73 K	-1.26 K	0.49 K	4.73 K	2.13 K	-1.13 K	2.43 K	7.33 K	6.37 K
COc1cc(NC(=O)C2(C(=O)Nc3cccc(-c4c[nH]c5ncnc(N6CCOCC6)c45)c3)CC2)ccc1F [Compound 21]	4.12 K	1.81 K	6.98 K	-0.74 K	0.91 K	2.83 K	3.07 K	-0.77 K	2.99 K	8.44 K	2.31 K
Cc1ccc(-n2nc(C(C)(C)C)cc2NC(=O)Nc2cccc(-c3c[nH]c4ncnc(N5CCOCC5)c34)c2)cc1 [Compound 29]	3.91 K	4.13 K	6.09 K	1.72 K	5.51 K	2.14 K	3.53 K	0.25 K	-0.19 K	10.79 K	10.91 K
CNC(=O)c1cc(Oc2ccc(NC(=O)Nc3cc(C(C)(C)C)nn3-c3ccc4ncccc4c3)c(F)c2)ccn1 [Rebastinib, reference compound]	2.04 K	1.99 K	9.62 K	1.21 K	10.52 K	0.55 K	0.65 K	0.57 K	10.35 K	9.02 K	10.76 K
CC(=O)N1CCN(c2nc(Cl)nc3[nH]cc(-c4cccc(NC(=O)Nc5cc(C(C)(C)C)nn5-c5ccc(C)cc5)c4)c23)CC1 [Compound 31]	-0.53 K	0.84 K	3.85 K	-0.11 K	0.41 K	-1.38 K	3.25 K	-1.67 K	-0.09 K	6.29 K	4.11 K

The remaining lines, values ahead:

dTm [1]	dTm [2]	dTm [3]	dTm [4]	dTm [5]	dTm [6]	dTm [7]	dTm [8]	dTm [9]	dTm [10]	dTm [11]	SMILES
4.58 K	3.75 K	4.39 K	3.02 K	-0.0179 K	0.19 K	4.89 K	0.35 K	3.68 K	9.61 K	3.30 K	CC(C)(C)c1cccc(NC(=O)C2(C(=O)Nc3cccc(-c4c[nH]c5ncnc(N6CCOCC6)c45)c3)CC2)c1 [Compound 22]
3.88 K	3.47 K	5.16 K	-1.98 K	1.27 K	2.17 K	0.92 K	-0.72 K	5.86 K	9.51 K	6.09 K	O=C(Nc1cccc(-c2c[nH]c3ncnc(N4CCOCC4)c23)c1)c1cccn(-c2ccc(F)cc2)c1=O [Compound 4]
-6.37 K	0.77 K	3.28 K	3.75 K	-0.23 K	0.31 K	2.04 K	1.57 K	3.32 K	4.96 K	1.14 K	O=C(Nc1cccc(-c2c[nH]c3ncnc(N4CCOCC4)c23)c1)C1(C(=O)Nc2cc(Br)c(F)cc2F)CC1 [Compound 25]
4.84 K	1.56 K	3.89 K	-1.11 K	1.22 K	3.55 K	1.02 K	-0.49 K	2.28 K	8.42 K	4.88 K	CCc1ccc(NC(=O)C2(C(=O)Nc3cccc(-c4c[nH]c5ncnc(N6CCOCC6)c45)c3)CC2)cc1 [Compound 15]
1.86 K	2.06 K	2.55 K	2.09 K	-0.13 K	0.19 K	1.29 K	1.63 K	3.74 K	5.86 K	2.30 K	O=C(Nc1cccc(-c2c[nH]c3ncnc(N4CCOCC4)c23)c1)C1(C(=O)Nc2ccc(F)c(Br)c2F)CC1 [Compound 26]
